This note sets out measurements from ChEMBL document CHEMBL1201862, “PubChem BioAssay data set” (2004).

Test systems include DMS-273; HOP-18; KM-20L2; LXFL 529; RXF 631; SNB-78; XF498; DMS-114; M19-MEL.
Holding throughout (assay): NCI anticancer screen, dose series, 48 h

SMILES strings stand for the structures.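 All cell lines were grown in 96-well plates and treated with compound for 48 hours. Abbreviation: GI50, concentration required for 50% inhibition of growth.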 Active and inactive are the calls of the source. Cut-off read from the data, not from the text of the source: active = GI50 up to about 1.1 µM and inactive = higher.

In the case of `COC1C(C)OC(OC2CC(C)(O)Cc3cc4c(c(O)c32)C(=O)c2c(O)cc3c(c2C4=O)OC2OC3(C)C(O)C(N(C)C)C2O)C(OC)C1(C)OC` (stereo not given), the GI50 was 0.015 µM (active) in the experiment on DMS-273; 0.11 µM (active) in the experiment on HOP-18; 0.0299 µM (active) in the experiment on KM-20L2; 0.0318 µM (active) in the experiment on LXFL 529; 0.155 µM (active) in the experiment on RXF 631; 0.0282 µM (active) in the experiment with SNB-78. For the same molecule, the GI50 in the experiment with XF498 is 0.0165 µM (active).
Take `Cc1ccc(NC(=O)CC(=O)n2nc(-c3ccccc3)c(/N=N\c3ccccc3[N+](=O)[O-])c2-c2ccccc2)cc1`: the GI50 in the experiment on DMS-114 is 84.5 µM (inactive); with DMS-273 it was 44 µM (inactive); in the experiment on HOP-18, > 100 µM (inactive); in the experiment on KM-20L2, > 100 µM (inactive); in the experiment with LXFL 529 it was 38.6 µM (inactive); in the experiment with M19-MEL, > 100 µM (inactive). In addition, the GI50 in the experiment with RXF 631 was 27.6 µM (inactive); with SNB-78, > 100 µM (inactive); in the experiment with XF498, 37.5 µM (inactive).
As to `CS(=O)(=O)N(CCC#N)c1ccc(C=O)cc1`, the GI50 with DMS-114, in the experiment with DMS-273, in the experiment on KM-20L2, with LXFL 529, in the experiment with M19-MEL and with XF498 was > 100 µM (inactive) in each case.
Consider `Cc1ccc2nc3cc(C)c(=O)cc-3sc2c1`, for which the GI50 in the experiment on DMS-114 was 40.7 µM (inactive); in the experiment with DMS-273, > 100 µM (inactive); with HOP-18, > 100 µM (inactive); in the experiment with KM-20L2, > 100 µM (inactive); with LXFL 529, 78.5 µM (inactive); with M19-MEL, 16.1 µM (inactive). The GI50 with SNB-78 is > 100 µM (inactive).
In the case of `COP(=O)(OC)/C(=N\Nc1ccc([N+](=O)[O-])cc1)NCc1ccccc1`, the GI50 is 21.4 µM (inactive) with DMS-114; 36.3 µM (inactive) in the experiment with DMS-273; 30.1 µM (inactive) in the experiment with KM-20L2; 31.8 µM (inactive) in the experiment on LXFL 529; 37.3 µM (inactive) in the experiment on M19-MEL.
Consider `C=CCNC(=O)/C=C\C(=O)O`, for which the GI50 with DMS-114, with DMS-273, with HOP-18, in the experiment on KM-20L2, in the experiment with LXFL 529 and in the experiment with M19-MEL was > 100 µM (inactive) throughout. For the same molecule, the GI50 with RXF 631 and in the experiment with SNB-78 was > 100 µM (inactive) in each case.
In the case of `CCc1nc2ccccc2c(=O)n1/N=C(\N=N\c1ccc(Cl)cc1)c1ccccc1`, the GI50 was 18.7 µM (inactive) with DMS-114; 20.7 µM (inactive) with DMS-273; 12.5 µM (inactive) in the experiment with HOP-18; 14 µM (inactive) in the experiment with KM-20L2; 19.1 µM (inactive) in the experiment on LXFL 529; 41.8 µM (inactive) in the experiment with M19-MEL. The GI50 with SNB-78 is 27.1 µM (inactive).
With `COc1ccc(/C=C2\CCCC(C(NO)c3ccc(OC)cc3)C2=NO)cc1` (stereo not given), the GI50 in the experiment on DMS-114 is 28.4 µM (inactive); in the experiment on DMS-273 it was 45.9 µM (inactive); in the experiment on HOP-18, 32.4 µM (inactive); in the experiment on KM-20L2, 61.9 µM (inactive); in the experiment with LXFL 529, 28.1 µM (inactive); in the experiment on M19-MEL, 46.3 µM (inactive). Besides, the GI50 in the experiment with RXF 631 was 40.5 µM (inactive); in the experiment on SNB-78 it was 45.7 µM (inactive).
On to `Cc1nc(C(N)=O)c(N)n1CCN1CCN(C(=O)CCCCCCCCCCNC2NC=Nc3[nH]cnc32)CC1` (stereo not given), for which the GI50 in the experiment with DMS-114 was 6.04 µM (inactive); in the experiment on HOP-18, > 100 µM (inactive); in the experiment on KM-20L2, > 100 µM (inactive); in the experiment on LXFL 529, 11.2 µM (inactive); in the experiment with M19-MEL, 34.4 µM (inactive); in the experiment on RXF 631, > 100 µM (inactive). Besides, the GI50 in the experiment with SNB-78 was 39.5 µM (inactive).
Consider `CC1CC(C)C2OC2(C)C[C@H](C)C(=O)NC(C)C(=O)N(C)[C@H](Cc2c(Br)[nH]c3ccccc23)C(=O)N[C@@H](c2ccc(O)cc2)CC(=O)O1` (stereo not given in full), for which the GI50 is 0.0348 µM (active) with DMS-114; 0.0241 µM (active) with DMS-273; 0.15 µM (active) in the experiment with KM-20L2; 0.221 µM (active) with LXFL 529; 0.161 µM (active) in the experiment on M19-MEL; 0.76 µM (active) in the experiment with RXF 631. Moreover, the values for the GI50 in the experiment on SNB-78 and with XF498 were 0.309 µM (active) and 0.838 µM (active), respectively.
For `CC(=O)O[C@H]1C(=O)[C@@]2(C)C(C(OC(=O)c3ccccc3)[C@]3(O)CC(OC(=O)C(O)C(NC(=O)c4ccc(C(F)(F)F)cc4)c4ccccc4)C(C)=C1C3(C)C)[C@]1(OC(C)=O)CO[C@@H]1C[C@@H]2O` (stereo not given in full), the GI50 was 0.0226 µM (active) with DMS-114; 0.0431 µM (active) with DMS-273; 0.836 µM (active) with HOP-18; 0.0767 µM (active) in the experiment on KM-20L2; 0.0824 µM (active) with M19-MEL; 0.453 µM (active) with SNB-78. Besides, in the experiment with XF498, the GI50 is 0.681 µM (active).
Take `O=C(/C=C/c1c(O)ccc2ccccc12)c1ccc2ccccc2c1`: the GI50 with DMS-114 was > 100 µM (inactive); with DMS-273, > 100 µM (inactive); with KM-20L2, > 100 µM (inactive); with M19-MEL, 18.2 µM (inactive); with SNB-78 it was > 100 µM (inactive).
Take `NN=C1/C(=C\c2ccccc2)CCC/C1=C/c1ccccc1`: the GI50 in the experiment with DMS-114 is 26.1 µM (inactive); in the experiment on DMS-273, 39.9 µM (inactive); in the experiment on HOP-18 it was 63.4 µM (inactive); in the experiment on KM-20L2, 39.6 µM (inactive); in the experiment on LXFL 529 it was 31.4 µM (inactive); with M19-MEL, 31.6 µM (inactive). For the same molecule, the GI50 in the experiment with SNB-78 is 50.5 µM (inactive).
Take `O=NN(CCCl)C(=O)NC1CCC(=O)NC1=O` (stereo not given): the GI50 in the experiment on DMS-114 was 214 µM (inactive); in the experiment with DMS-273, 160 µM (inactive); with HOP-18 it was 432 µM (inactive); with KM-20L2, 800 µM (inactive); in the experiment with M19-MEL, 250 µM (inactive); with SNB-78 it was 176 µM (inactive). The GI50 in the experiment on XF498 is 69 µM (inactive).
With `CC/C(CC(=O)CCC(=O)Nc1ccc(C)c(C)c1)=N\NC(=O)C(N)=O`, the GI50 with DMS-114, with DMS-273, with HOP-18, in the experiment with KM-20L2, with LXFL 529 and in the experiment with M19-MEL was > 100 µM (inactive) each time. The GI50 in the experiment with SNB-78 and in the experiment on XF498 was > 100 µM (inactive) throughout.
Turning to `O=S(=O)(NCn1ccc2ccccc21)c1ccccc1`, the GI50 in the experiment on DMS-273 is > 64.3 µM (inactive); in the experiment with HOP-18 it was > 100 µM (inactive); with KM-20L2, > 100 µM (inactive); in the experiment on LXFL 529, > 100 µM (inactive); with M19-MEL it was > 100 µM (inactive); with RXF 631, > 100 µM (inactive). The GI50 in the experiment with SNB-78 was > 53.1 µM (inactive); in the experiment with XF498, > 100 µM (inactive).
As to `COc1c(NC(C)=O)cc(C)cc1NC(C)=O`, the GI50 in the experiment with DMS-114, in the experiment on DMS-273, with M19-MEL, in the experiment with SNB-78 and with XF498 was > 100 µM (inactive) throughout.
Consider `CC(=O)NC(CCCNC(=O)OCc1ccccc1)C(=O)O` (stereo not given), for which the GI50 is > 100 µM (inactive) with DMS-114; > 100 µM (inactive) with DMS-273; > 100 µM (inactive) with KM-20L2; 47.5 µM (inactive) in the experiment on LXFL 529; > 100 µM (inactive) in the experiment on M19-MEL; > 100 µM (inactive) in the experiment with RXF 631. The GI50 in the experiment on SNB-78 was 49.5 µM (inactive); in the experiment with XF498 it was > 100 µM (inactive).
Turning to `O=C1NC2C(=O)N(Cc3ccccc3)C(=O)C2N1` (stereo not given), the GI50 in the experiment on DMS-114, in the experiment with KM-20L2, with LXFL 529, with M19-MEL, in the experiment with SNB-78 and with XF498 was > 100 µM (inactive) throughout.
`CC1(O)CCn2c(=O)c3cc4ccccc4cc3c(=O)n2C1O` (stereo not given): the GI50 in the experiment with DMS-114 is > 100 µM (inactive); with DMS-273, > 100 µM (inactive); in the experiment with HOP-18 it was 26.8 µM (inactive); with KM-20L2, > 100 µM (inactive); with LXFL 529 it was > 100 µM (inactive); with M19-MEL, > 100 µM (inactive). In the experiment on RXF 631, the GI50 was > 100 µM (inactive).
For the molecule `Cc1c(N2CCN(C)CC2)nc2ccc(Cl)cc2c1-c1ccccc1`, the GI50 was 15.8 µM (inactive) in the experiment on DMS-114; 17 µM (inactive) with DMS-273; 15.7 µM (inactive) with KM-20L2; 16.9 µM (inactive) in the experiment with LXFL 529; 16.3 µM (inactive) in the experiment on SNB-78.
